Patent US20090239926A1, “METHODS FOR THE TREATMENT OF PSORIASIS OR PSORIATIC ARTHRITIS USING CYCLOPROPYL-N-CARBOXAMIDE” (priority 2008, published 2009)
pIC50: −log10 of the molar value. “And” between values parts separate entries of the source, which are not always exact repeats. Equal values may be shown once.

Legend:
[1] = tested on: IL-5 production by human CD4+ T cells; test: IL-5 production by CD4+ T cells; type: cell-based; settings: CD4+ T cell, stimulated with CD3 antibody OKT3 and CD28 antibody CD28.2
Description: CD4^+ T cells were purified from human leukocytes obtained from the Blood Center of New Jersey (East Orange, N.J.) by negative selection (Schafer, P. H., et al., J Immunol, 1999. 162(12): 7110-9). CD4^+ T cells were stimulated with CD3 antibody OKT3 (purified from OKT3 hybridoma supernatant) and CD28 antibody CD28.2 (BD Pharmingen) (Hatzelmann, A. and C. Schudt, J Pharmacol Exp Ther, 2001. 297(1): 267-79). IL-5 was measured by ELISA (R&D Systems).

[2] = tested on: LPS-stimulated monocyte TNF-α production; test: LPS-induced TNF-α production in monocytes; type: cell-based; settings: Homo sapiens, LPS 10 ng/ml, 24 hours
Description: LPS-induced TNF-α production in Monocytes: Monocytes separated from human peripheral blood mononuclear cells (PBMCs) were plated into a 96-well flat bottom plate at 1×10^5/well in RPMI (5% heat inactivated fetal calf serum (FCS) and then treated with increasing concentrations of Compound A and control (in triplicate). Following a 30 minute pre-incubation period, the monocytes were stimulated with LPS (10 ng/ml) and cultured for 24 hours at 37° C. in 5% CO2. The supernatants are then harvested and analyzed by ELISA.

[3] = tested on: mAB/LPS-induced experimental arthritis in male BALB/c mice; test: mAb/LPS-induced mice arthritis model; type: in vivo
Description: Treatment Regimen: Compound A was administered by oral gavage (PO), using a suitable stainless steel feeding needle. Enbrel (Reference Item) was administrated by intraperitoneal (IP) injections. Compound A was first administered on study Day 3 (one hour prior to the single LPS injection) and thereafter on Days 4, 5, 6, 7, 8, 9, 10, 11, 12 and 13 (total of 11 successive treatment days) at 1, 5 and 25 mg/kg once daily. Compound A treated groups comprised n=8 BALB/c male mice per dosing group. In addition, two equally sized groups were treated with either Enbrel (5 mg/kg/day, Reference Item), or a solution of 0.5% Na CMC/0.25% Tween 80 (PO, 5 ml/kg, Vehicle Control).
Arthritis Reactions: Both hind paws (left and right) of each animal were examined for signs of arthritogenic responses prior to arthritis induction (Day 0) and thereafter on study days 4, 5, 6, 7, 9, 11 & 14 as selected by the Sponsor. Arthritis reactions were scored and recorded according to a 0-4 scale in ascending order of severity (based on Morwell MD Biosciences Inc. brochure) as shown in Table 1.
Measurements of Experimental Arthritis: Hind paw thickness was determined on eight days using a Mitutoyo Electronic Digital Caliper (on Days 0, 4, 5, 6, 7, 9, 11 and 14) and presented as mean group values of the average for both left and right hind paws.

[4] = Compound A 1 mg/kg/day PO, Day 0 (prior to arthritis induction)
[5] = Compound A 1 mg/kg/day PO, Day 4
[6] = Compound A 1 mg/kg/day PO, Day 5
[7] = Compound A 1 mg/kg/day PO, Day 6
[8] = Compound A 1 mg/kg/day PO, Day 7
[9] = Compound A 1 mg/kg/day PO, Day 9
[10] = Compound A 1 mg/kg/day PO, Day 11
[11] = Compound A 1 mg/kg/day PO, Day 14
[12] = Compound A 5 mg/kg/day PO, Day 0 (prior to arthritis induction)
[13] = Compound A 5 mg/kg/day PO, Day 4
[14] = Compound A 5 mg/kg/day PO, Day 5
[15] = Compound A 5 mg/kg/day PO, Day 6
[16] = Compound A 5 mg/kg/day PO, Day 7
[17] = Compound A 5 mg/kg/day PO, Day 9
[18] = Compound A 5 mg/kg/day PO, Day 11
[19] = Compound A 5 mg/kg/day PO, Day 14
[20] = Compound A 25 mg/kg/day PO, Day 0 (prior to arthritis induction)
[21] = Compound A 25 mg/kg/day PO, Day 4
[22] = Compound A 25 mg/kg/day PO, Day 5
[23] = Compound A 25 mg/kg/day PO, Day 6
[24] = Compound A 25 mg/kg/day PO, Day 7

## CCOc1cc([C@@H](CS(C)(=O)=O)N2Cc3cccc(NC(=O)C4CC4)c3C2=O)ccc1OC [Compound A, cyclopropyl-N-{2-[(1S)-1-(3-ethoxy-4-methoxyphenyl)-2-(methylsulfonyl)ethyl]-3-oxoisoindoline-4-yl}carboxamide]
[1]
  IC50: 520 nM and 0.25 µg/mL
[2]
  pIC50: 7.40
[3]; [4]
  Arthritis Scoring, mean of both hind paws (0-4 scale): 0
  Hind Paws Thickness, group mean: 2.2 mm
[3]; [5]
  Arthritis Scoring, mean of both hind paws (0-4 scale): 0
  Hind Paws Thickness, group mean: 2.2 mm
  Percentage Change in Hind Paw Thickness vs. Study Commencement (Day 0), group mean: 1%
[3]; [6]
  Arthritis Scoring, mean of both hind paws (0-4 scale): 1
  Hind Paws Thickness, group mean: 2.4 mm
  Percentage Change in Hind Paw Thickness vs. Study Commencement (Day 0), group mean: 8%
[3]; [7]
  Arthritis Scoring, mean of both hind paws (0-4 scale): 2
  Hind Paws Thickness, group mean: 2.7 mm
  Percentage Change in Hind Paw Thickness vs. Study Commencement (Day 0), group mean: 24%
[3]; [8]
  Arthritis Scoring, mean of both hind paws (0-4 scale): 2
  Hind Paws Thickness, group mean: 2.8 mm
  Percentage Change in Hind Paw Thickness vs. Study Commencement (Day 0), group mean: 27%
[3]; [9]
  Arthritis Scoring, mean of both hind paws (0-4 scale): 2
  Hind Paws Thickness, group mean: 2.7 mm
  Percentage Change in Hind Paw Thickness vs. Study Commencement (Day 0), group mean: 23%
[3]; [10]
  Arthritis Scoring, mean of both hind paws (0-4 scale): 1
  Percentage Change in Hind Paw Thickness vs. Study Commencement (Day 0), group mean: 13%
[3]; [11]
  Arthritis Scoring, mean of both hind paws (0-4 scale): 1
  Hind Paws Thickness, group mean: 2.4 mm
  Percentage Change in Hind Paw Thickness vs. Study Commencement (Day 0), group mean: 7%
[3]; [12]
  Arthritis Scoring, mean of both hind paws (0-4 scale): 0
  Hind Paws Thickness, group mean: 2.2 mm
[3]; [13]
  Arthritis Scoring, mean of both hind paws (0-4 scale): 0
  Hind Paws Thickness, group mean: 2.2 mm
  Percentage Change in Hind Paw Thickness vs. Study Commencement (Day 0), group mean: 1%
[3]; [14]
  Arthritis Scoring, mean of both hind paws (0-4 scale): 1
  Hind Paws Thickness, group mean: 2.5 mm
  Percentage Change in Hind Paw Thickness vs. Study Commencement (Day 0), group mean: 12%
[3]; [15]
  Arthritis Scoring, mean of both hind paws (0-4 scale): 2
  Hind Paws Thickness, group mean: 2.8 mm
  Percentage Change in Hind Paw Thickness vs. Study Commencement (Day 0), group mean: 30%
[3]; [16]
  Arthritis Scoring, mean of both hind paws (0-4 scale): 2
  Hind Paws Thickness, group mean: 2.8 mm
  Percentage Change in Hind Paw Thickness vs. Study Commencement (Day 0), group mean: 30%
[3]; [17]
  Arthritis Scoring, mean of both hind paws (0-4 scale): 2
  Hind Paws Thickness, group mean: 2.7 mm
  Percentage Change in Hind Paw Thickness vs. Study Commencement (Day 0), group mean: 21%
[3]; [18]
  Arthritis Scoring, mean of both hind paws (0-4 scale): 1
  Percentage Change in Hind Paw Thickness vs. Study Commencement (Day 0), group mean: 15%
[3]; [19]
  Arthritis Scoring, mean of both hind paws (0-4 scale): 1
  Hind Paws Thickness, group mean: 2.5 mm
  Percentage Change in Hind Paw Thickness vs. Study Commencement (Day 0), group mean: 13%
[3]; [20]
  Arthritis Scoring, mean of both hind paws (0-4 scale): 0
  Hind Paws Thickness, group mean: 2.2 mm
[3]; [21]
  Arthritis Scoring, mean of both hind paws (0-4 scale): 0
  Hind Paws Thickness, group mean: 2.2 mm
  Percentage Change in Hind Paw Thickness vs. Study Commencement (Day 0), group mean: 0%
[3]; [22]
  Arthritis Scoring, mean of both hind paws (0-4 scale): 1
  Hind Paws Thickness, group mean: 2.4 mm
  Percentage Change in Hind Paw Thickness vs. Study Commencement (Day 0), group mean: 8%
[3]; [23]
  Arthritis Scoring, mean of both hind paws (0-4 scale): 2
  Hind Paws Thickness, group mean: 2.7 mm
  Percentage Change in Hind Paw Thickness vs. Study Commencement (Day 0), group mean: 21%
[3]; [24]
  Arthritis Scoring, mean of both hind paws (0-4 scale): 2
  Hind Paws Thickness, group mean: 2.7 mm
  Percentage Change in Hind Paw Thickness vs. Study Commencement (Day 0), group mean: 21%
[3]; Compound A 25 mg/kg/day PO, Day 11
  Arthritis Scoring, mean of both hind paws (0-4 scale): 1
